Measurements published in patent US20250268903A1, “RXFP1 AGONISTS” (BRISTOL-MYERS SQUIBB COMPANY, priority 2021, published 2025).

Target: T1, human RXFP1 (Homo sapiens, UniProt Q9HBX9)
T1 construct: expressed in transfected cells
T1 sequence (Q9HBX9 1-757): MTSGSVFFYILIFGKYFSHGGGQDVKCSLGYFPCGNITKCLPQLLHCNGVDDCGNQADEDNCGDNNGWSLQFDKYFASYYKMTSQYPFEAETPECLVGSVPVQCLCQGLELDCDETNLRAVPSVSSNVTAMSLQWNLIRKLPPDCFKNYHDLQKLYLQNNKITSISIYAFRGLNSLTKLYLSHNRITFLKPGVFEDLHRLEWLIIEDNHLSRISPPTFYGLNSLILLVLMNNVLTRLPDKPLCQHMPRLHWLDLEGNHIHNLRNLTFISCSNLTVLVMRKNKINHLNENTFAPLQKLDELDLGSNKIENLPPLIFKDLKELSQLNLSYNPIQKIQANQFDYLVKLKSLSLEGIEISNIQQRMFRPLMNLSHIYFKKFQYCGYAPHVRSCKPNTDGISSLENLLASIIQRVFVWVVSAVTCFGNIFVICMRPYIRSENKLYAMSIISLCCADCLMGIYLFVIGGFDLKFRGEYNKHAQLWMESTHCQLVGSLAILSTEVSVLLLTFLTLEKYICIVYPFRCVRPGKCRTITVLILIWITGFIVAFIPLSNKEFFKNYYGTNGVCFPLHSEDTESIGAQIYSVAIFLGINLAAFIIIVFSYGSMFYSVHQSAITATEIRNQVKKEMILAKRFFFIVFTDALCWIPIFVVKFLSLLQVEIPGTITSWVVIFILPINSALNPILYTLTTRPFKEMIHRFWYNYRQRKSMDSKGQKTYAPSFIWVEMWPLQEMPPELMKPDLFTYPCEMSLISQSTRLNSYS
Assay: hRXFP1 HEK293 cAMP assay (HTRF)
Assay type: cell-based
Conditions: HEK293 cells stably expressing human RXFP1, 30 min at room temperature
Protocol: RXFP1 Cyclic Adenosine Monophosphate (cAMP) Assays. […] Cells were dissociated and suspended in assay buffer. The assay buffer was HBSS buffer (with calcium and magnesium) containing 20 mM HEPES, 0.05% BSA, and 0.5 mM IBMX. Cells (3000 cells per well, except 1500 cell per well for HEK293 cells stably expressing human RXFP1) were added to 384-well Proxiplates (Perkin-Elmer). Cells were immediately treated with test compounds in DMSO (2% final) at final concentrations in the range of 0.010 nM to 50 μM. Cells were incubated for 30 min at room temperature. The level of intracellular cAMP was determined using the HTRF HiRange cAMP assay reagent kit (Cisbio) according to manufacturer's instructions. Solutions of cryptate conjugated anti-cAMP and d2 fluorophore-labelled cAMP were made in a supplied lysis buffer separately. Upon completion of the reaction, the cells were lysed with equal volume of the d2-cAMP solution and anti-cAMP solution. […] The potency and activity of a compound to […] cAMP production was then determined by fitting to a 4-parametric logistic equation from a plot of cAMP level versus compound concentrations.

| EC50 | Molecule |
| --- | --- |
| 1270 nM | COc1ccc(C2CCCCC2O)cc1C(=O)N[C@@H]1C2CCC(/C2=C/C(F)(F)F)[C@@H]1C(=O)Nc1ccc(F)c(C(F)(F)F)c1 (mixture of isomers) [Example 59] |
| 833 nM | COc1ccc(C2CCCC(NC(=O)C3CCOCC3)C2)cc1C(=O)N[C@@H]1C2CCC(/C2=C/C(F)(F)F)[C@@H]1C(=O)Nc1ccc(F)c(C(F)(F)F)c1 (single isomer, unassigned) [Example 49] |
| 2350 nM | COc1ccc(C2CCCC(NC(=O)C3CCOCC3)C2)cc1C(=O)N[C@@H]1C2CCC(/C2=C/C(F)(F)F)[C@@H]1C(=O)Nc1ccc(F)c(C(F)(F)F)c1 (single isomer, unassigned) [Example 50] |
| 2350 nM | COc1ccc(C2CCCC(NC(=O)C3CCOCC3)C2)cc1C(=O)N[C@@H]1C2CCC(/C2=C/C(F)(F)F)[C@@H]1C(=O)Nc1ccc(F)c(C(F)(F)F)c1 (single isomer, unassigned) [Example 51] |
| 276 nM | COc1ccc(C2CCC(O)CC2)cc1C(=O)NC1C2CCC(/C2=C/C(F)(F)F)[C@@H]1C(=O)Nc1ccc(F)c(C(F)(F)F)c1 (single isomer, unassigned) [Example 52] |
| 396 nM | COc1ccc(C2CCC(O)CC2)cc1C(=O)NC1C2CCC(/C2=C/C(F)(F)F)[C@@H]1C(=O)Nc1ccc(F)c(C(F)(F)F)c1 (single isomer, unassigned) [Example 53] |
| 1440 nM | COc1ccc(C2CCCCC2O)cc1C(=O)N[C@@H]1C2CCC(/C2=C/C(F)(F)F)[C@@H]1C(=O)Nc1ccc(F)c(C(F)(F)F)c1 (single isomer, unassigned) [Example 57] |
| 1200 nM | COc1ccc(C2CCCCC2O)cc1C(=O)N[C@@H]1C2CCC(/C2=C/C(F)(F)F)[C@@H]1C(=O)Nc1ccc(F)c(C(F)(F)F)c1 (single isomer, unassigned) [Example 58] |
| 648 nM | COc1ccc(C(C)CCO)cc1C(=O)N[C@@H]1C2CCC(/C2=C/C(F)(F)F)[C@@H]1C(=O)Nc1ccc(F)c(C(F)(F)F)c1 (single isomer, unassigned) [Example 60] |
| 603 nM | COc1ccc(C(C)CCO)cc1C(=O)N[C@@H]1C2CCC(/C2=C/C(F)(F)F)[C@@H]1C(=O)Nc1ccc(F)c(C(F)(F)F)c1 (single isomer, unassigned) [Example 61] |
| 172 nM | COc1ccc(C2CC2C(=O)O)cc1C(=O)N[C@@H]1C2CCC(/C2=C/C(F)(F)F)[C@@H]1C(=O)Nc1ccc(F)c(C(F)(F)F)c1 (single isomer, unassigned) [Example 62] |
| 4420 nM | COc1ccc(C2CC2C(=O)O)cc1C(=O)N[C@@H]1C2CCC(/C2=C/C(F)(F)F)[C@@H]1C(=O)Nc1ccc(F)c(C(F)(F)F)c1 (single isomer, unassigned) [Example 63] |
| 252 nM | COc1ccc(C2CC2CO)cc1C(=O)N[C@@H]1C2CCC(/C2=C/C(F)(F)F)[C@@H]1C(=O)Nc1ccc(F)c(C(F)(F)F)c1 (single isomer, unassigned) [Example 64] |
| 250 nM | COc1ccc(C2CC2CO)cc1C(=O)N[C@@H]1C2CCC(/C2=C/C(F)(F)F)[C@@H]1C(=O)Nc1ccc(F)c(C(F)(F)F)c1 (single isomer, unassigned) [Example 65] |
| 142 nM | COc1ccc(CC(C)CO)cc1C(=O)N[C@@H]1C2CCC(/C2=C/C(F)(F)F)[C@@H]1C(=O)Nc1ccc(F)c(C(F)(F)F)c1 (single isomer, unassigned) [Example 66] |
| 193 nM | COc1ccc(CC(C)CO)cc1C(=O)N[C@@H]1C2CCC(/C2=C/C(F)(F)F)[C@@H]1C(=O)Nc1ccc(F)c(C(F)(F)F)c1 (single isomer, unassigned) [Example 67] |
| 857 nM | COC(=O)C1CC2(C1)CC(c1ccc(OC)c(C(=O)N[C@@H]3C4CCC(/C4=C/C(F)(F)F)[C@@H]3C(=O)Nc3ccc(F)c(C(F)(F)F)c3)c1)C2 (single isomer, unassigned) [Example 149] |
| 715 nM | COC(=O)C1CC2(C1)CC(c1ccc(OC)c(C(=O)N[C@@H]3C4CCC(/C4=C/C(F)(F)F)[C@@H]3C(=O)Nc3ccc(F)c(C(F)(F)F)c3)c1)C2 (single isomer, unassigned) [Example 150] |
| 51 nM | COc1ccc(CCCO)cc1C(=O)NC1C2CCC(/C2=C/C2CCCOC2)[C@@H]1C(=O)Nc1ccc(F)c(C(F)(F)F)c1 (single isomer, unassigned) [Example 170, (7Z)-N-[4-fluoro-3-(trifluoromethyl)phe-nyl]-3-[5-(3-hydroxypropyl)-2-methoxybenzamido]-7-[(oxan-3-yl)methylidene]bicy-clo[2.2.1]heptane-2-carboxamide] |

More lines, now with the values behind:

| Molecule | EC50 |
| --- | --- |
| 2-(3-{[(2R,3S,7Z)- 3-{[4-fluoro-3- (trifluoromethyl)phe- nyl]carbamoyl}-7- (2,2,2- trifluoroethylidene)bi- cyclo[2.2.1]heptan- 2-yl]carbamoyl}-4- methoxyphenyl)ethyl N-phenylcarbamate [Example 56] | 447 nM |
| 4-(3-{[(2R,3S,7Z)- 3-{[4-fluoro-3- (trifluoromethyl)phe- nyl]carbamoyl}-7- (2,2,2- trifluoroethylidene)bi- cyclo[2.2.1]heptan- 2-yl]carbamoyl}-4- methoxyphenyl)cyclo- hexyl N- phenylcarbamate [Example 54] | 158 nM |
| COc1ccc(C(O)C(F)(F)F)cc1C(=O)NC1C2CCC(/C2=C/C(F)(F)F)[C@@H]1C(=O)Nc1ccc(F)c(C(F)(F)F)c1 (single isomer, unassigned) [Example 5] | 1010 nM |
| COc1ccc(C(O)C(F)(F)F)cc1C(=O)NC1C2CCC(/C2=C/C(F)(F)F)[C@@H]1C(=O)Nc1ccc(F)c(C(F)(F)F)c1 (single isomer, unassigned) [Example 6] | 1240 nM |
| COc1ccc(COC2CCC(OCc3ccccc3)CC2)cc1C(=O)N[C@@H]1C2CCC(/C2=C/C2CC2)[C@@H]1C(=O)Nc1ccc(F)c(C(F)(F)F)c1 (single isomer, unassigned) [Example 23] | 993 nM |
| COc1ccc(COC2CCC(OCc3ccccc3)CC2)cc1C(=O)N[C@@H]1C2CCC(/C2=C/C2CC2)[C@@H]1C(=O)Nc1ccc(F)c(C(F)(F)F)c1 (single isomer, unassigned) [Example 24] | 1810 nM |
| COc1ccc(C2CCCC(O)C2)cc1C(=O)N[C@@H]1C2CCC(/C2=C/C(F)(F)F)[C@@H]1C(=O)Nc1ccc(F)c(C(F)(F)F)c1 (single isomer, unassigned) [Example 35] | 667 nM |
| COc1ccc(C2CCCC(O)C2)cc1C(=O)N[C@@H]1C2CCC(/C2=C/C(F)(F)F)[C@@H]1C(=O)Nc1ccc(F)c(C(F)(F)F)c1 (single isomer, unassigned) [Example 36] | 442 nM |
| COc1ccc(C2CCCC(O)C2)cc1C(=O)N[C@@H]1C2CCC(/C2=C/C(F)(F)F)[C@@H]1C(=O)Nc1ccc(F)c(C(F)(F)F)c1 (single isomer, unassigned) [Example 37] | 780 nM |
| COc1ccc(C2CCCC(O)C2)cc1C(=O)N[C@@H]1C2CCC(/C2=C/C(F)(F)F)[C@@H]1C(=O)Nc1ccc(F)c(C(F)(F)F)c1 (single isomer, unassigned) [Example 38] | 250 nM |
| COc1ccc(C2CCCC(OC(=O)Nc3ccccc3)C2)cc1C(=O)N[C@@H]1C2CCC(/C2=C/C(F)(F)F)[C@@H]1C(=O)Nc1ccc(F)c(C(F)(F)F)c1 (single isomer, unassigned) [Example 40] | 19 nM |
| COc1ccc(C2CCCC(OC(=O)Nc3ccccc3)C2)cc1C(=O)N[C@@H]1C2CCC(/C2=C/C(F)(F)F)[C@@H]1C(=O)Nc1ccc(F)c(C(F)(F)F)c1 (single isomer, unassigned) [Example 41] | 201 nM |
| COc1ccc(C2CCCC(OC(=O)Nc3ccccc3)C2)cc1C(=O)N[C@@H]1C2CCC(/C2=C/C(F)(F)F)[C@@H]1C(=O)Nc1ccc(F)c(C(F)(F)F)c1 (single isomer, unassigned) [Example 42] | 214 nM |
| COc1ccc(C2CCCC(OC(=O)Nc3ccccc3)C2)cc1C(=O)N[C@@H]1C2CCC(/C2=C/C(F)(F)F)[C@@H]1C(=O)Nc1ccc(F)c(C(F)(F)F)c1 (single isomer, unassigned) [Example 43] | 157 nM |
| COc1ccc(C2CCCC(NC(=O)C3CCOCC3)C2)cc1C(=O)N[C@@H]1C2CCC(/C2=C/C(F)(F)F)[C@@H]1C(=O)Nc1ccc(F)c(C(F)(F)F)c1 (single isomer, unassigned) [Example 48] | 833 nM |
